Literature values as cited in article PMC10894724 (Chemistry (Weinheim an der Bergstrasse, Germany), 2023).

System: P. falciparum Dd2 strain

CCCCCC(=O)N[C@H](C(=O)N[C@@H](CCS(C)(=O)=O)C(=O)N[C@@H](CC(C)C)C(=O)[C@@]1(C)CO1)C(C)C [carmaphycin B]
selectivity for asexual blood stage P. falciparum cells over human HepG2 cells: 3 fold
